Measured values from patent US9174960B2, “Compounds useful against kinetoplastideae parasites” (CENTRE NATIONAL DE LA RECHERCHE SCIENTIFIQUE, priority 2009, dated 2015).
Counter-ions that a name gives are not always drawn. Like-named read-outs stand apart in the source and are kept apart here.

How the values were obtained:
[1] = test system: MRC-5SV2 cells; assay: Cytotoxicity against human cell lines (resazurin); conditions: human lung fibroblasts MRC-5
[2] = test system: Trypanosoma brucei brucei Squib 427 strain (suramin-sensitive); assay: In vitro Trypanosoma brucei brucei growth assay (resazurin); assay type: cell-based
Protocol: The strain is maintained in Hirumi (HMI-9) medium, supplemented with 10% FCSi. […] After 3 d incubation, parasite growth is assessed fluorimetrically after addition of resazurin. After 24 h at 37° C., fluorescence is measured (λex 550 nm, λem 590 nm).

[3] = test system: Trypanosoma cruzi, Tulahuen CL, β galactosidase strain (nifurtimox-sensitive); assay: In vitro Trypanosoma cruzi assay on MRC-5 cells (CPRG); assay type: cell-based; conditions: for trypanocidal activity against T. cruzi (in words): in vitro
Protocol: Trypanosoma cruzi, Tulahuen CL, β galactosidase strain (nifurtimox-sensitive) is used. The strain is maintained on MRC-5SV2 (human lung fibroblast) cells in MEM medium, supplemented with […] L-glutamine, 16.5 mM NaHCO3, and 5% FCSi. All cultures and assays are conducted at 37° C. under an atmosphere of 5% CO2. Assays are performed in sterile 96-well microtiter plates, each well containing 10 μl of the watery compound dilutions together with 190 μl of MRC-5 cell/parasite inoculum (2·10^4 cells/ml±2·10^5 parasites/ml). Parasite growth is compared to untreated-infected controls (100% growth) and non-infected controls (0% growth) after 7 d incubation. Parasite burdens are assessed after adding the substrate CPRG (chlorophenolred β-D-galactopyranoside): 50 μl/well of a stock solution containing 15.2 mg CPRG+250 μl Nonidet in 100 ml PBS. The change in color is measured spectrophotometrically at 540 nm after 4 h incubation at 37° C.

[4] = Stability of the compound (HPLC analysis, light); assay type: physicochemical
[5] = test system: Primary peritoneal mouse macrophages; assay: Toxicity against mouse macrophages (host cells of the L. infantum assay); assay type: cell-based; conditions: mouse macrophages (L. inf)
Protocol: (§1) The Leishmania infantum MHOM/MA (BE)/67 strain is used. The strain is maintained in the Golden Hamster and spleen amastigotes are collected for preparing infection inocula. Primary peritoneal mouse macrophages are used as host cell and are collected 2 d after peritoneal stimulation with a 2% potato starch suspension. […] After 5 d incubation, parasite burdens (mean number of amastigotes/macrophage) are microscopically assessed after Giemsa staining.

[6] = test system: Leishmania infantum MHOM/MA (BE)/67 strain; assay: In vitro Leishmania infantum assay, intracellular amastigotes in primary peritoneal mouse macrophages; assay type: cell-based; conditions: L. infantum amastigotes in mouse macrophages, 5 d incubation, reference drug, read-out: IC50 (50% inhibitory concentration), reduction in parasite burden
Protocol: as §1

[7] = test system: human African trypanosomiasis (HAT); conditions: cited from earlier work
[8] = test system: bloodstream forms of T. brucei; conditions: cited from earlier work
[9] = test system: promastigotes of L. major; conditions: cited from earlier work
[10] = test system: procyclic forms of T. b. brucei; conditions: cited from earlier work
[11] = test system: Trypanosoma brucei brucei CMP (fast strain); assay: Trypanocidal activity in vivo in T. brucei-infected mice; conditions: T. brucei-infected Swiss mice
Protocol: Animals: Swiss mice (female 18-20 g, Janvier, Le Genest St Isle, France) are randomly allocated to groups of 6 animals each. Drinking water and food are available ad libitum throughout the experiment (except when the treatment is given by oral route; in this condition, the treatment is given after 12 h of animal fasting).
Parasite: Trypanosoma brucei brucei CMP (fast strain) is maintained in the laboratory by mechanical intraperitoneal sub-passage every three days in Swiss mice. The infection inoculum is prepared by taking blood collected from a clinically ill donor mouse and diluted in pH 7.2 PBS to obtain an infection inoculum of about 10^5 trypanosomes/ml suspension. Mice are infected by intraperitoneal injection of 0.1 ml of parasite suspension (=10^4 parasites).
Test substances: The reference compound is melarsoprol.
Test compounds are analytically pure compounds.
Formulations: The compounds are formulated in 100% DMSO. Clear solutions should be obtained. The stock solution is divided in aliquots and stored at −20° C. until use. Aliquots are thawed immediately before treatment. The reference compound melarsoprol is formulated in PBS and stored at −20° C.
Treatment: The first dosing with the test compounds was given approx. 3 hours after artificial infection. • Melarsoprol (Arsobal®): 6 infected mice intraperitoneally treated with 1 mg/kg×4 consecutive days. • Test compounds: 6 infected mice per AMTD×1-5 consecutive days. • Controls: 10 infected mice receiving vehicle only (0.1-0.2 ml) Evaluation Parameters:
Parasitemia was checked microscopically from blood collected at the tail of the mice 2 days after the treatment, and every two days until 30 days post-treatment in case of survival. The trypanocidal activity was evaluated by the mean survival time of treated mice for each dose comparatively to survival time of mice treated with the vehicle alone. Treatment was considered to be successful when the mean survival time exceeds 30 days and the mice remains aparasitemic. […] Cure rate are expressed as percentages.

[12] = one single dose at 50 mg/kg i.p.

Compound | toxicity against mammalian (MRC-5) cells (in words) [1] | trypanocidal activity against T. brucei (in words) [2] | trypanocidal activity against T. cruzi (in words) [3] | other results
N#Cc1ccc(/C=C/C(=O)/C=C/c2ccc(C#N)cc2)cc1 [NW307.2, (1E,4E)-1,5-Bis(4-cyanophenyl)penta-1,4-dien-3-one] | without any cytotoxicity | excellent activity | excellent activity | 
O=C(/C=C/c1ccc(O)c(OC(F)(F)F)c1)/C=C/c1ccc(O)c(OC(F)(F)F)c1 [NW317, (1E,4E)-1,5-Bis(4-hydroxy-3-(trifluoromethoxy)phenyl)penta-1,4-dien-3-one] |  |  |  | light sensitivity (in words) [4]: Light-sensitive
O=C1C[C@H](c2ccncc2)S[C@@H](c2ccncc2)C1 (relative stereo) [TG003A23, trans-2,6-di(pyridin-4-yl)dihydro-2H-thiopyran-4(3H)-one] | much less cytotoxicity |  |  | toxicity against mouse macrophages (in words) [5]: much less cytotoxicity
COc1cc(/C=C/C(=O)/C=C/c2ccc(O)c(OC)c2)ccc1O [NW300, (1E,4E)-1,5-Bis(4-hydroxy-3-methoxyphenyl)penta-1,4-dien-3-one] | very high cytotoxicity | excellent antitrypanosomal activity |  | 
CCCCCCCCCCCCCCCCOP(=O)([O-])OCC[N+](C)(C)C [miltefosine] |  |  |  | IC50 ([6]; Leishmania infantum, Macrophage, 120 h): 5.2 ± 0.8 µM
COc1cc(Br)c(O)c(/C=C/C(=O)/C=C/c2cc(OC)cc(Br)c2O)c1 [NW326.4, (1E,4E)-1,5-Bis(3-bromo-2-hydroxy-5-methoxyphenyl)penta-1,4-dien-3-one] |  |  |  | decomposition ([4]; HPLC analysis, after 5 days): 60%
O=C(O)[C@@H]1[O][Sb](=[O])([O][Sb]2(=[O])[O][C@H]([C@H](O)CO)[C@H](O)[C@H](C(=O)O)[O]2)[O][C@H]([C@H](O)CO)[C@@H]1O.[Na+].[Na+].[Na+] (some centres unmarked) [Pentostam] |  |  |  | IC50 [6]: 6.8 ± 0.9 µM
CN1C(c2ccncc2)CC(=O)CC1c1ccncc1 (centres unmarked) [BJ591, 1-Methyl-2,6-di(pyridine-4-yl)piperidin-4-one] | much less cytotoxicity |  |  | toxicity against mouse macrophages (in words) [5]: much less cytotoxicity
O=C(/C=C/c1ccc(C(F)(F)F)cc1)/C=C/c1ccc(C(F)(F)F)cc1 [NW267, (1E,4E)-1,5-Bis(4-trifluoromethyl-phenyl)-penta-1,4-dien-3-one] | without any toxicity | excellent antitrypanosomal activities | excellent antitrypanosomal activities | toxicity against mouse macrophages (in words) [5]: without any toxicity
Nc1nc(N)nc(Nc2ccc([As]3SCC(CO)S3)cc2)n1 (centres unmarked) [melarsoprol] |  |  |  | failure rate after treatment ([7]; late stage case of human African trypanosomiasis): under 7%; overall mortality due to the drug itself ([7]; therapy of late-stage encephalitic disease, patients): more than 5%
O=C(/C=C/c1ccc(OC(F)(F)F)cc1)/C=C/c1ccc(OC(F)(F)F)cc1 [NW254, (1E,4E)-1,5-Bis(4-trifluoromethoxy-phenyl)-penta-1,4-dien-3-one] | without any toxicity | excellent antitrypanosomal activities | excellent antitrypanosomal activities | toxicity against mouse macrophages (in words) [5]: without any toxicity
CC1CS(=O)(=O)CCN1/N=C/c1ccc([N+](=O)[O-])o1 (centres unmarked) [Nifurtimox, reference compound] |  |  |  | IC50 ([3]; Trypanosoma cruzi, MRC5, 168 h, T. cruzi Tulahuen CL on MRC-5 cells, 7 d incubation, reference drug, read-out: IC50, reduction in parasite burdens): 0.845 ± 0.2 µM
CN1C(c2ccccc2)CC(=O)CC1c1ccccc1 (stereo not drawn) [NW249.1, meso-1-Methyl-2,6-diphenyl-piperidin-4-one] | low toxicity | high trypanocidal activity |  | toxicity against mouse macrophages (in words) [5]: without any toxicity
COc1cc(/C=C/C(=O)CC(=O)/C=C/c2ccc(O)c(OC)c2)ccc1O [Curcumin] |  |  |  | cytotoxicity against bloodstream forms of T. brucei relative to procyclic forms [8]: 10 times; LD50 [9]: 37.6 ± 3.5 µM; LD50 [10]: 46.5 ± 4.9 µM
O=C(/C=C/c1cccnc1)/C=C/c1cccnc1 [NW321, (1E,4E)-1,5-Di(pyridin-3-yl)penta-1,4-dien-3-one Dihydrochloride] | high cytotoxicity | excellent trypanocidal activity | excellent trypanocidal activity | parasitemia [11, 12]: 0%
O=C(/C=C/c1ccccn1)/C=C/c1ccccn1 [BJ621] | high cytotoxicity | excellent trypanocidal activity | excellent trypanocidal activity | 
COc1ccc(O)c(/C=C/C(=O)/C=C/c2cc(OC)ccc2O)c1 [NW327.2, (1E,4E)-1,5-Bis(2-hydroxy-5-methoxyphenyl)penta-1,4-dien-3-one] |  |  |  | parasitemia [11, 12]: 0%; parasitemia ([11]; two doses over a two days-period, 25 mg/kg i.p.): 0%
O=C(/C=C/c1ccncc1)/C=C/c1ccncc1 [NW319, (1E,4E)-1,5-Di(pyridin-4-yl)penta-1,4-dien-3-one Dihydrochloride] | high cytotoxicity | excellent trypanocidal activity | excellent trypanocidal activity | parasitemia [11, 12]: 0%; parasitemia ([11]; two doses over a two days-period, 12.5 mg/kg i.p.): 0%
